In paper PMC7767381, “Exploring the Anti-Cancer Mechanism of Novel 3,4′-Substituted Diaryl Guanidinium Derivatives” (Pharmaceuticals, 2020):

What was measured:
HKH-2 cells = assay: alamarBlue cell viability assay, HKH-2; assay type: cell-based; details: Homo sapiens, 72 h, mutated KRas disrupted, read-out: HKH-2 IC50 ± SEM
From the text: (§1) Cell viability and proliferation assays were used to evaluate the in vitro cytotoxicity of all synthesised compounds in a variety of different cancer cell lines using the alamarBlue® viability assay and the results are presented in Table 1 and Table 2. The sensitivity of cancer cells to drugs can often be compromised by PIK3CA, Ras and BRAF mutations. To determine whether such mutations are critical to the efficacy of our new compounds we tested them in a range of cancerous cell lines expressing different mutations. Firstly, we used the HL-60 (human promyelocytic leukaemia, NRas mutated) cell line for general cytotoxicity screening of all compounds. […] Lastly, toxicity against MCF-10A, which is a non-tumorigenic epithelial cell line, was also assessed for one of the most promising compounds (4). The graphs representing the viability results with the HL-60, MCF-7, HeLa, HCT-116, and HKH-2 cancer cell lines for compound 1 and derivatives 2, 3, and 4 are shown in Figures S7–S10 (ESI).
(§2) Cells were counted and seeded in 96-well plates at a density of 2 × 10^5 cells/mL for HL-60, 2.5 × 10^4 cells/mL for MCF-7, MCF10A and HeLa, 1 × 10^5 cells/mL for HCT116 and HKH-2, all of them in their respective media. The 96-well plates were then treated with a 1:100 dilution of stock concentrations of drugs or EtOH (1% v/v)/DMSO (0.1% v/v) as vehicle control in triplicate. Three blank wells containing 200 µL RPMI with no cells were also set-up as blanks. After a 72 h incubation, 20 µL of alamarBlue was added to each well. The plates were incubated in darkness at 37 °C for 4–5 h using a Molecular Devices microplate reader, the fluorescence (F) was then read at an excitation wavelength of 544 nm and an emission wavelength of 590 nm. Cell viability was then determined by subtracting the mean blank fluorescence (Fb) from the treated sample fluorescence (Fs) and expressing this as a percentage of the fluorescence of the blanked vehicle control (Fc). […] The results were then plotted as a nonlinear regression, sigmoidal dose-response curves on Prism, from which the IC50 value for each drug was determined.
(§3) The MCF-7 (human breast tumour) cell line was obtained from Prof. Mary Meegan, School of Pharmacy, TCD. It was maintained in Roswell Park Memorial Institute (RPMI) 1640 medium with stable glutamate (GlutaMax I) supplemented with 10% (v/v) fetal bovine serum (FBS), 1% (v/v) penicillin/ streptomycin (pen-strep) and 2 mM L-glutamine.
(§4) The HeLa (human epitheloid cervix carcinoma) cell line was obtained from Prof. Thorfinnur Gunnlaugsson, School of Chemistry TCD. It was maintainedin Dulbecco's Modified Eagle's Medium (DMEM) supplemented with 10% (v/v) fetal bovine serum (FBS) and 1%(v/v) penicillin/ streptomycin (pen-strep).
(§5) The HCT116and HKH-2 (human colon cancer cells) cell lines were obtained from Prof. James Murray, School of Biochemistry and Immunology TCD. They were maintainedin Dulbecco's Modified Eagle's Medium (DMEM) supplemented with 10% (v/v) fetal bovine serum (FBS), 1% (v/v) penicillin/ streptomycin (pen-strep), 1% (v/v) sodium pyruvate (NaPyr), 1% (v/v) L-glutamine (L-Glu) and, only for HKH-2, 0.6 mg/mL geneticine (G418).
MCF-10A (human breast epithelial) cell line was obtained from Prof. Mary Meegan, School of Pharmacy, TCD. […]
(§6) Cells were counted and seeded in 96 well plates at a density of 2 × 10^5 cells/mL for HL-60, 2.5× 10^4 cells/mL for MCF-7, MCF10A and HeLa, 1 × 10^5 cells/mL for HCT116 and HKH-2, all of them in their respective media. […]

MCF-7 cells = assay: alamarBlue cell viability assay, MCF-7; assay type: cell-based; details: Homo sapiens, MCF7, 72 h, read-out: MCF-7 IC50 ± SEM
From the text: as §1, §2, §3, §4, §5
MCF-10A (human breast epithelial) cell line was obtained from Prof. Mary Meegan, School of Pharmacy, TCD. It was cultured in Dulbecco’s Modified Eagle Medium/Nutrient Mixture F-12 (DMEM/F12; Gibco) supplemented with 5% horse serum (Invitrogen), 20 ng/mL epidermal growth factor (Merck Millipore), 0.5 μg/mL hydrocortisone (Sigma), 100 ng/mL cholera toxin (Sigma), 10 μg/mL insulin (Sigma), and penicillin/streptomycin (1% v/v) (Gibco).
4.4. AlamarBlue ® Cell Viability Assay
as §6, with “media. The 96 well plates were then treated with a 1:100 dilution of stock concentrations of drugs or EtOH (1% v/v)/DMSO (0.1% v/v) as vehicle control in triplicate.” for “media.”

Row | SMILES | IC50 (HKH-2 cells) [µM] | IC50 (MCF-7 cells) [µM] | melting point [°C]
1 | Cl.N=C(N)Nc1ccc(Oc2cccc(Nc3ccc(Cl)c(C(F)(F)F)c3)c2)cn1 [Compound 4, 1-(5-(3-((4-Chloro-3-(trifluoromethyl)phenyl)amino)phenoxy)pyridin-2-yl)guanidine hydrochloride] | 2.88 ± 0.15 | 3.73 ± 0.35 | 89 to 91
2 | Cl.Cl.N=C(N)Nc1ccc(Oc2cccc(NC(=N)Nc3ccc(Cl)c(C(F)(F)F)c3)c2)cn1 [Compound 2, 1-(4-Chloro-3-(trifluoromethyl)phenyl)-3-(3-((6-guanidinopyridin-3-yl)oxy)phenyl) guanidine dihydrochloride] | 8.09 ± 0.78 | 4.91 ± 1.04 | 169 to 171
3 | Cl.N=C(N)Nc1ccc(Oc2cccc(Nc3ccc(Cl)c(C(F)(F)F)c3)c2)cc1 [Compound 3, 1-(4-(3-((4-Chloro-3-(trifluoromethyl)phenyl)amino)phenoxy)phenyl)guanidine hydrochloride] | 10.3 ± 0.74 | 2.02 ± 0.27 | 58 to 60
